Results reported in patent US20240368164A1, “PURINE NUCLEOSIDES, THEIR INTERMEDIATES, AND METHODS OF PREPARATION THEREOF” (Astrocyle Pharmaceuticals, Inc., priority 2021, published 2024).

What was measured:
[1] = Plasma protein binding (free fraction); format: in vitro ADME, mouse
Source text: (§1) Example 3 of U.S. Pat. No. 9,789,131, which is incorporated herein by reference, describes assays for determining the plasma and brain free fraction of certain compounds such as I-1. Compounds described herein may be evaluated using such assays or similar variants thereof.

[2] = system: traumatic brain injury (TBI) in mice; assay: Mouse traumatic brain injury (TBI) model; format: in vivo
Protocol: Animals and traumatic brain injury (TBI): TBI is performed with a controlled closed skull injury model as described in Talley-Watts et al. 2012 (J. Neurotrauma 30, 55-66). Following the method described therein, a pneumatic impact device is used to generate a moderate TBI leaving the skull and dura matter intact. To achieve this, C57BL/6 mice are anesthetized with isoflurane (3% induction, 1% maintenance) in 100% oxygen. A body temperature of 37° C. is maintained using a temperature-controlled heated surgical table. A small midline incision is made on the scalp using aseptic surgical techniques. A 5 mm stainless steel disc is positioned on the skull and fixed using superglue on the right parietal bone between bregma and lamda over the somatosensory cortex. The mouse is then positioned on a stage directly under the pneumatic impact tip. […] Mice are placed in a Thermo-Intensive Care Unit (Braintree Scientific model FV-1; 37° C.; 27% O2) and monitored until fully awake and moving freely. […]
Western Blot Analysis for GFAP: At selected survival times, mice are anesthetized under isoflurane and sacrificed. […] The homogenate is transferred to a 2 mL tube and centrifuged at 1000 g for 10 minutes at 4° C. and the supernatant is collected and analyzed. Protein concentration is determined by the BCA assay using a 1:50 dilution. […]

[3] = system: photothrombosis-induced stroke in mice; assay: Mouse photothrombotic stroke model; format: in vivo; conditions: mouse, stroke
Protocol: Photothrombosis-induced Stroke: Photothrombosis is performed as described in Zheng et al 2010 (PloS One 5 (12): e14401). In brief, Rose Bengal is a fluorescent dye that when injected into the vasculature and excited, generates singlet oxygen that damages the endothelial wall and induces a local thrombosis (clot). Using this technique, mice are given a 0.1 mL tail-vein injection of sterilized Rose Bengal (RB, Sigma, U.S.A.) in artificial cerebral spinal fluid (aCSF). The RB concentration is 20 mg/mL. A cortical region is centered in the imaging field and illuminated with a green laser (543 nm, 5 mW) using a 0.8-NA 40× water-immersion objective (Nikon, Tokyo). The clot formation is monitored in real time until the targeted vessel or downstream capillaries are firmly occluded. Stable clots are subsequently identified by a non-fluorescent vessel segmentation ending with highly fluorescent regions. […] Treatments, at doses such as 0.5 μmol/kg are introduced via intraperitoneal injections (i.p.). For experiments with A3 receptor antagonist MRS1523, mice are administered intraperitoneal injections (2 mg/kg) at the 0 and 2 hour timepoints to ensure receptor antagonism throughout the course of the study.
Animals and Photothrombosis-induced Stroke: Stroke is performed as described in Zheng et al 2010 (PloS One 5 (12): e14401). Female C57Bl/6 mice (4-6 months) are used in this study. From the methods of this manuscript: Mice are anesthetized at 3% isoflurane with 100% oxygen and subsequently maintained at 1% isoflurane through a nosecone. Depth of anesthesia is monitored and regulated according to vital signs, pinch withdrawal and eye blinks. Body temperature is maintained at 37° C. by a feedback-controlled heating pad (Gaymar T/Pump). Vital signs including oxygen saturation, respiratory rate, and heart rate are continuously monitored by using the MouseOx system (STARR Life Sciences). […]
Post photothrombotic infarction evaluation. The size of cerebral infarcts is evaluated using 2,3,5-Triphenyltetrazolium chloride (TTC) staining as described in Zheng et al 2010 (PloS One 5 (12): e14401). […]

[4] = Nonspecific brain tissue binding (free fraction); format: in vitro ADME, mouse; conditions: brain tissue
Source text: as §1

[5] = target: T1, Human A3R (Homo sapiens, UniProt P0DMS8); assay: Radioligand binding at human A3 adenosine receptor ([125I]I-AB-MECA, CHO cell membranes); conditions: n = 1; read-out: Affinity (nM) at Human A3R
T1 construct: expressed in transfected cells
T1 sequence (P0DMS8 1-318): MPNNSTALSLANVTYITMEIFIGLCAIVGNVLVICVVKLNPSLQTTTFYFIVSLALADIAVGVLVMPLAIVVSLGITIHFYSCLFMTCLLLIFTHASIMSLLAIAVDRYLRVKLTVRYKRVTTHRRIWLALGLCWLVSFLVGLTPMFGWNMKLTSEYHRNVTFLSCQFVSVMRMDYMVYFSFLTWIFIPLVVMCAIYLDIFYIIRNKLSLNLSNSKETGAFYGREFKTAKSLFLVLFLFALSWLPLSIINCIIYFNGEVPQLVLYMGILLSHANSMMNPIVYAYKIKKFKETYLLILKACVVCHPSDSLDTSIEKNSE
Protocol: [3H]R—N^6-Phenylisopropyladenosine ([3H]R-PIA, 63 Ci/mmol), [^3H](2-[p-(2-carboxyethyl)phenyl-ethylamino]-5′-N-ethylcarboxamido-adenosine) ([^3H]CGS21680, 40.5 Ci/mmol) and [^125I]N^6-(4-amino-3-iodobenzyl)adenosine-5′-N-methyluronamide ([^125I]I-AB-MECA, 2200 Ci/mmol) were purchased from Perkin-Elmer Life and Analytical Science (Boston, MA). Test compounds were prepared as 5 mM stock solutions in DMSO and stored frozen.
Cell Culture and Membrane Preparation—CHO cells stably expressing the recombinant hA1 and hA3ARs and HEK293 cells stably expressing the hA2AAR were cultured in Dulbecco's modified Eagle medium (DMEM) and F12 (1:1) supplemented with 10% fetal bovine serum, 100 units/mL penicillin, 100 μg/mL streptomycin, and 2 μmol/mL glutamine. In addition, 800 μg/mL geneticin was added to the A2A media, while 500 μg/mL hygromycin was added to the A1 and A3 media. After harvesting, cells were homogenized and suspended in PBS. Cells were then centrifuged at 240 g for 5 min, and the pellet was resuspended in 50 mM Tris-HCl buffer (pH 7.5) containing 10 mM MgCl2. The suspension was homogenized and was then ultra-centrifuged at 14,330 g for 30 min at 4° C. The resultant pellets were resuspended in Tris buffer, incubated with adenosine deaminase (3 units/mL) for 30 min at 37° C. The suspension was homogenized with an electric homogenizer for 10 sec, pipetted into 1 mL vials and then stored at −80° C. until the binding experiments. The protein concentration was measured using the BCA Protein Assay Kit from Pierce Biotechnology, Inc. (Rockford, IL).
Binding assays: Into each tube in the binding assay was added 50 μL of increasing concentrations of the test ligand in Tris-HCl buffer (50 mM, pH 7.5) containing 10 mM MgCl2, 50 μL of the appropriate agonist radioligand, and finally 100 μL of membrane suspension. For the A1AR (22 μg of protein/tube) the radioligand used was [^3H]R-PIA (final concentration of 3.5 nM). For the A2AAR (20 μg/tube) the radioligand used was [^3H]CGS21680 (10 nM). For the A3AR ([…]) the radioligand used was [^125I]I-AB-MECA (0.34 nM). Nonspecific binding was determined using a final concentration of 10 μM NECA diluted with the buffer. The mixtures were incubated at 25° C. for 60 min in a shaking water bath. Binding reactions were terminated by filtration through Brandel GF/B filters under a reduced pressure using a M-24 cell harvester (Brandel, Gaithersburg, MD). Filters were washed three times with 3 mL of 50 mM ice-cold Tris-HCl buffer (pH 7.5). Filters for A1 and A2AAR binding were placed in scintillation vials containing 5 mL of Hydrofluor scintillation buffer and counted using a Perkin Elmer Liquid Scintillation Analyzer (Tri-Carb 2810TR). Filters for A3AR binding were counted using a Packard Cobra II T-counter. The Ki values were determined using GraphPad Prism for all assays.
A3R binding of selected compounds. Using methods described herein, the affinity of selected compounds at the A3 receptor was measured.

[6] = target: T2, A3AR (Homo sapiens, UniProt P0DMS8); conditions: reference 5; cited from earlier work
T2 sequence (P0DMS8 1-318): T1 sequence (P0DMS8 1-318)

[7] = target: P2Y1R (Homo sapiens, UniProt P47900); conditions: reference 6; cited from earlier work
Chain of P2Y1R (P47900 whole entry): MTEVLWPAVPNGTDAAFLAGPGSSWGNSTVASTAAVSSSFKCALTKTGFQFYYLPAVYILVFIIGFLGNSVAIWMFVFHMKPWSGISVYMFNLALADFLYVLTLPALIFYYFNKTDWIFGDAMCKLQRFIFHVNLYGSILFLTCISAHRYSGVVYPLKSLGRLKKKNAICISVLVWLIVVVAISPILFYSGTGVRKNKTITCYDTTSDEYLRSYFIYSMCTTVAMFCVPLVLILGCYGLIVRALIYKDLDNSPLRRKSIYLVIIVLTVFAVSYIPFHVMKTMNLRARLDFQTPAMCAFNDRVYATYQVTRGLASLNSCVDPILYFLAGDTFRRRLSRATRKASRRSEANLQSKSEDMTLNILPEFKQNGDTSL

## CNC(=O)[C@H]1O[C@@H](n2cnc3c(NCc4cccc(I)c4)nc(Cl)nc32)[C@H](O)[C@@H]1O [Cl-IB-MECA, reference compound]
[1]
  free (unbound) fraction in plasma: 0.002
[2]
  efficacy in mouse TBI model: weakly active
[3]
  efficacy in mouse photothrombotic stroke model: inactive
[4]
  free (unbound) fraction in brain: 0.002

## Nc1nc(SC2CCCCC2)nc2c1ncn2[C@H]1[C@H](O)[C@H](O)[C@]2(CO)C[C@H]12 [Compound I-4, (1R,2R,3S,4R,5S)-4-(6-Amino-2-(cyclohexylthio)-9H-purin-9-yl)-1-(hydroxymethyl)bicyclo[3.1.0]hexane-2,3-diol]
[5]
  Ki: 1170 nM

## Nc1nc(SCCc2ccccc2)nc2c1ncn2[C@H]1[C@H](O)[C@H](O)[C@]2(CO)C[C@H]12 [Compound I-6, (1R,2R,3S,4R,5S)-4-(6-Amino-2-(phenethylthio)-9H-purin-9-yl)-1-(hydroxymethyl)bicyclo[3.1.0]hexane-2,3-diol]
[5]
  Ki: 379 nM

## Nc1nc(SCc2ccccc2)nc2c1ncn2[C@H]1[C@H](O)[C@H](O)[C@]2(CO)C[C@H]12 [Compound I-5, (1R,2R,3S,4R,5S)-4-(6-Amino-2-(benzylthio)-9H-purin-9-yl)-1-(hydroxymethyl)bicyclo[3.1.0]hexane-2,3-diol]
[5]
  Ki: 55 nM

## CNC(=O)[C@@]12C[C@@H]1[C@@H](n1cnc3c(NCc4cccc(Cl)c4)nc(SC)nc31)C(O)[C@H]2O (stereo partly drawn) [MRS3611]
[6]
  Ki: 0.0015 µM

## CCSc1nc(N)c2ncn([C@H]3[C@H](O)[C@H](O)[C@]4(CO)C[C@H]34)c2n1 [Compound I-2, (1R,2R,3S,4R,5S)-4-(6-Amino-2-(ethylthio)-9H-purin-9-yl)-1-(hydroxymethyl)bicyclo[3.1.0]hexane-2,3-diol]
[5]
  Ki: 909 nM

## COc1nc(N)c2ncn([C@H]3[C@H](O)[C@H](O)[C@]4(CO)C[C@H]34)c2n1 [Compound I-7, (1R,2R,3S,4R,5S)-4-(6-Amino-2-methoxy-9H-purin-9-yl)-1-(hydroxymethyl)bicyclo[3.1.0]hexane-2,3-diol]
[5]
  Ki: 1050 nM

## CCCCCCSc1nc(N)c2ncn([C@H]3[C@H](O)[C@H](O)[C@]4(CO)C[C@H]34)c2n1 [Compound I-3, (1R,2R,3S,4R,5S)-4-(6-Amino-2-(hexylthio)-9H-purin-9-yl)-1-(hydroxymethyl)bicyclo[3.1.0]hexane-2,3-diol]
[5]
  Ki: 504 nM

## CSc1nc(N)c2ncn([C@H]3C(O)[C@@H](O)[C@]4(COP(=O)(O)OP(=O)(O)O)C[C@H]34)c2n1 (stereo partly drawn) [MRS2365]
[7]
  Ki: 0.0004 µM
